Calls of active or inactive are those of the source. No cut-off for these calls is given here.
Experiments:
Syrian golden hamster [1] = assay: Lipid lowering effect on high-fat diet-fed golden hamster harboring LDLR-/- assessed as decrease in serum LDL-C level at 200 mg/kg, po qd administered via gavage measured after 8 weeks relative to control; assay type: functional, Mesocricetus auratus; set-up: scale not given: the % may be the effect or the level left
[2] = Stability in human plasma assessed as compound remaining at 1 to 5 uM measured after 30 mins by LC-MS/MS analysis; assay type: ADME, cell-free; conditions: dose 1-5 µM, read-out: Stability
Syrian golden hamster [3] = assay: Lipid lowering effect on high-fat diet-fed golden hamster assessed as decrease in serum TC level at 6 mg/kg, po qd administered via gavage measured after 4 weeks relative to control; assay type: functional, Mesocricetus auratus; set-up: scale not given: the % may be the effect or the level left
[4] = Stability in human liver microsomes assessed as hepatic clearance at 1 uM measured for 60 mins in presence of NADPH by LC-MS/MS analysis; assay type: ADME, Microsome
Mus musculus [5] = assay: Effect on Ptafr mRNA level in liver of diet-induced obese C57BL/6 mouse model harboring AMPKalpha LS-/- at 200 mg/kg, po for 4 weeks by GO analysis; assay type: functional, organism-based
Syrian golden hamster [6] = assay: Lipid lowering effect on high-fat diet-fed golden hamster assessed as decrease in AST level in liver at 50 to 200 mg/kg, po qd administered via gavage measured after 4 weeks; assay type: functional, organism-based; conditions: Mesocricetus auratus, dose 50-200 mg/kg
Mus musculus [7] = assay: Effect on Gadd45a mRNA level in liver of diet-induced obese C57BL/6 mouse model harboring AMPKalpha LS-/- at 200 mg/kg, po for 4 weeks by GO analysis; assay type: functional, organism-based
Syrian golden hamster [8] = assay: Lipid lowering effect on high-fat diet-fed golden hamster assessed as decrease in TG level in liver at 100 to 200 mg/kg, po qd administered via gavage measured after 4 weeks; assay type: functional, organism-based; conditions: Mesocricetus auratus, dose 100-200 mg/kg
Rhesus monkey = assay: Lipid lowering effect in Rhesus monkey assessed as LDL-C level at 35 mg/kg, NG qd treated for 35 days followed by drug washout for 14 days; assay type: functional, Macaca mulatta; conditions: time 35 day
Mus musculus [9] = assay: Downregulation of Mogat1 mRNA level in liver of high-fat diet-fed C57BL/6 mouse model at 200 mg/kg, po for 4 weeks by GO analysis; assay type: functional, organism-based
Mus musculus [10] = assay: Effect on Hspa5 mRNA level in liver of diet-induced obese C57BL/6 mouse model harboring AMPKalpha LS-/- at 200 mg/kg, po for 4 weeks by GO analysis; assay type: functional, organism-based
Mus musculus [11] = assay: Downregulation of Aacas mRNA level in liver of high-fat diet-fed C57BL/6 mouse model at 200 mg/kg, po for 4 weeks by GO analysis; assay type: functional, organism-based
Mus musculus [12] = assay: Effect on Mvd mRNA level in liver of diet-induced obese C57BL/6 mouse model harboring AMPKalpha LS-/- at 200 mg/kg, po for 4 weeks by GO analysis; assay type: functional, organism-based
Syrian golden hamster [13] = assay: Lipid lowering effect on high-fat diet-fed golden hamster assessed as decrease in ALT level in liver at 50 to 200 mg/kg, po qd administered via gavage measured after 4 weeks; assay type: functional, organism-based; conditions: Mesocricetus auratus, dose 50-200 mg/kg
Syrian golden hamster [14] = assay: Lipid lowering effect on high-fat diet-fed golden hamster assessed as decrease in serum TG level at 6 mg/kg, po qd administered via gavage measured after 4 weeks relative to control; assay type: functional, Mesocricetus auratus; set-up: scale not given: the % may be the effect or the level left
Mus musculus [15] = assay: Effect on Ccr2 mRNA level in liver of diet-induced obese C57BL/6 mouse model harboring AMPKalpha LS-/- at 200 mg/kg, po for 4 weeks by GO analysis; assay type: functional, organism-based
Mus musculus [16] = assay: Effect on Mogat1 mRNA level in liver of diet-induced obese C57BL/6 mouse model harboring AMPKalpha LS-/- at 200 mg/kg, po for 4 weeks by GO analysis; assay type: functional, organism-based
Syrian golden hamster [17] = assay: Lipid lowering effect on high-fat diet-fed golden hamster harboring LDLR-/- assessed as decrease in serum TC level at 200 mg/kg, po qd administered via gavage measured after 8 weeks relative to control; assay type: functional, Mesocricetus auratus; set-up: scale not given: the % may be the effect or the level left
[18] = target: Voltage-gated inwardly rectifying potassium channel KCNH2 (Homo sapiens, UniProt Q12809); assay: Inhibition of hERG; assay type: toxicity
[19] = Oral bioavailability in male Rhesus monkey at 70 mg/kg measured for 36 hrs by LC-tandem MS analysis; assay type: ADME, organism-based, Macaca mulatta; conditions: in vivo
Syrian golden hamster [20] = assay: Lipid lowering effect on high-fat diet-fed golden hamster assessed as decrease in serum LDL-C level at 50 mg/kg, po qd administered via gavage measured after 4 weeks relative to control; assay type: functional, Mesocricetus auratus; set-up: scale not given: the % may be the effect or the level left
Syrian golden hamster [21] = assay: Effect on serum TG level in high-fat diet-fed golden hamster harboring LDLR-/- at 50 to 200 mg/kg, po qd administered via gavage measured after 8 weeks; assay type: functional, organism-based; conditions: Mesocricetus auratus, dose 50-200 mg/kg
Mus musculus [22] = assay: Upregulation of Lepr mRNA level in liver of high-fat diet-fed C57BL/6 mouse model at 200 mg/kg, po for 4 weeks by GO analysis; assay type: functional, organism-based
Syrian golden hamster [23] = assay: Effect on body weight gain in high-fat diet-fed golden hamster at 50 to 200 mg/kg, po qd administered via gavage measured after 4 weeks; assay type: functional, organism-based; conditions: Mesocricetus auratus, dose 50-200 mg/kg

Sequence of Voltage-gated inwardly rectifying potassium channel KCNH2 (Q12809 whole entry): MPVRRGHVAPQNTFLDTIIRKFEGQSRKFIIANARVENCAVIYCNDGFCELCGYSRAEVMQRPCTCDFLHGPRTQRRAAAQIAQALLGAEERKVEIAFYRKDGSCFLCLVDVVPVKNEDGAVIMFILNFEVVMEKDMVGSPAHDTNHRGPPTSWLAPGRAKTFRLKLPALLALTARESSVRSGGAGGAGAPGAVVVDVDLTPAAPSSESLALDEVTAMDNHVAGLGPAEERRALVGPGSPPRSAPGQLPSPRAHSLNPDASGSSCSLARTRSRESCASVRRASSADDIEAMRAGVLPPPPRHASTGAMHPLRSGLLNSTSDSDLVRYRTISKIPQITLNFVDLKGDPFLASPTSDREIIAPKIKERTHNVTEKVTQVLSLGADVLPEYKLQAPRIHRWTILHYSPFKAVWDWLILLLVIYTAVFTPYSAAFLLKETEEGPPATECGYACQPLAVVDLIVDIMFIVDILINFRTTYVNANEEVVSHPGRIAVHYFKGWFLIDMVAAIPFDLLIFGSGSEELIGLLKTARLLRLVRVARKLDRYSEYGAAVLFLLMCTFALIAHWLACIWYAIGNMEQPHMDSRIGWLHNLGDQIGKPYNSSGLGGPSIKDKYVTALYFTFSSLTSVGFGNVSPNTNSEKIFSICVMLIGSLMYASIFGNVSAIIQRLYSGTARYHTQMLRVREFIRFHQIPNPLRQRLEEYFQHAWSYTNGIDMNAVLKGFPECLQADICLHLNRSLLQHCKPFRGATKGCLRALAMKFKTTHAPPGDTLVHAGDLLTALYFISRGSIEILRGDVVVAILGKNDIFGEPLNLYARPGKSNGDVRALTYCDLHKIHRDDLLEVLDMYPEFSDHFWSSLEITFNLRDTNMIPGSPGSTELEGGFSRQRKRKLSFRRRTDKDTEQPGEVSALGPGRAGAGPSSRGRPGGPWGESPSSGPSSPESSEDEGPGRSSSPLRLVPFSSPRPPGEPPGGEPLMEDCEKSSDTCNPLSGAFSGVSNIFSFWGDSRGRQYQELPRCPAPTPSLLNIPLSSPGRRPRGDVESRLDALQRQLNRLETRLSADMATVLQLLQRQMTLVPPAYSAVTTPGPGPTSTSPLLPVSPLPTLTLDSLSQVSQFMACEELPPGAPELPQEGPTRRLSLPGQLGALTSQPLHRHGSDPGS

## CC(=O)OC[C@H]1O[C@@H](n2cnc3c(Nc4cccc(O)c4)ncnc32)[C@H](OC(C)=O)[C@@H]1OC(C)=O
Syrian golden hamster [1]
  Activity: 43.1%
[2]
  remaining at 0.5 h, up to 5 µM: ~70%
Syrian golden hamster [3]
  Activity: 24.8%
[4]
  CLhep predicted at 1 µM: 19.9 mL/min/kg
Mus musculus [5]
  Activity: inactive
Syrian golden hamster [6]
  Activity: Active
Mus musculus [7]
  Activity: inactive
Syrian golden hamster [8]
  Activity: Active
Rhesus monkey
  Activity: 1.25 mmol/L
Mus musculus [9]
  Activity: Active
Mus musculus [10]
  Activity: inactive
Mus musculus [11]
  Activity: Active
Mus musculus [12]
  Activity: inactive
Syrian golden hamster [13]
  Activity: Active
Syrian golden hamster [14]
  Activity: 52.8%
Mus musculus [15]
  Activity: inactive
Mus musculus [16]
  Activity: inactive
Syrian golden hamster [17]
  Activity: 19%
[18]
  IC50: > 30 µM
[19]
  bioavailability: 3.04%
Syrian golden hamster [20]
  Activity: 10.5%
Syrian golden hamster [21]
  Activity: inactive
Mus musculus [22]
  Activity: Active
Syrian golden hamster [23]
  Activity: inactive

Source: ChEMBL document CHEMBL5506050, “Discovery of Oral AMP-Activated Protein Kinase Activators for Treating Hyperlipidemia” (J Med Chem, 2024)
